Measured values as given in ChEMBL document CHEMBL1135009, “2-(Dimethylaminomethyl)-tetrahydroisoxazolopyridobenzazepine derivatives. Synthesis of a new 5-HT(2C) antagonist with potential anxiolytic properties” (Bioorg Med Chem Lett, 2002).

How the values were obtained:
[1] = target: T1, 5-hydroxytryptamine receptor 2C (Homo sapiens, UniProt P28335); assay: Binding affinity against 5-HT2C receptor
T1 sequence (P28335 whole entry): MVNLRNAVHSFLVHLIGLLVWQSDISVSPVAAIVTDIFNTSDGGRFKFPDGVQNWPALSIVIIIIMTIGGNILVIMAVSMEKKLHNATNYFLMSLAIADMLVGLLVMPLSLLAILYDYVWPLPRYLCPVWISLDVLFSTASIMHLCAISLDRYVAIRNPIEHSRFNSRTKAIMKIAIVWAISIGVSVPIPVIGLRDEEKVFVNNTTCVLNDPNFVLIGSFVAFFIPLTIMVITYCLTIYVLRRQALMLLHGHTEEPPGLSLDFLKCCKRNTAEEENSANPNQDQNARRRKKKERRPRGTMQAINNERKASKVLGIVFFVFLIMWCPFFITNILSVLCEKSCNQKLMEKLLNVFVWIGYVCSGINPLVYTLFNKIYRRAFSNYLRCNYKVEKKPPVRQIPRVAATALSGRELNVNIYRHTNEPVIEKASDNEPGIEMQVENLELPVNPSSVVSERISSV

[2] = target: T2, D(4) dopamine receptor (Homo sapiens, UniProt P21917); assay: Binding affinity against Dopamine receptor D4
T2 sequence (P21917 whole entry): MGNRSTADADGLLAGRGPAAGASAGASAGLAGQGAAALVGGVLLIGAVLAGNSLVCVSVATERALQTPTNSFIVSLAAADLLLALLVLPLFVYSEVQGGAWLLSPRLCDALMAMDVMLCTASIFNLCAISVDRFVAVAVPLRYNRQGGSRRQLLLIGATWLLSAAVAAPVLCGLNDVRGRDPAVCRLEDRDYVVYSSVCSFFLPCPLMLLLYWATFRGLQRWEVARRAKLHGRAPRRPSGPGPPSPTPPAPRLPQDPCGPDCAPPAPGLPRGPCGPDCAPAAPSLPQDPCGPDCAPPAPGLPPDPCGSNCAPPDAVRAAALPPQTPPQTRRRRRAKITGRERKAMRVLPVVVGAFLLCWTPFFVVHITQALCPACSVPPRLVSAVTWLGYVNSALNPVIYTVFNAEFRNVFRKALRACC

[3] = test system: Mus musculus; assay: Activity in mCPP challenge test, disinhibition measurement after sc administration; type: functional
[4] = target: Histamine H1 receptor (Homo sapiens, UniProt P35367); assay: Binding affinity against Histamine H1 receptor
[5] = test system: Mus musculus; assay: Activity in mCPP challenge test, exploration measurements after sc administration; type: functional
[6] = target: T3, Alpha-1A adrenergic receptor (Homo sapiens, UniProt P35348); assay: Binding affinity against Alpha-1A adrenergic receptor
T3 sequence (P35348 whole entry): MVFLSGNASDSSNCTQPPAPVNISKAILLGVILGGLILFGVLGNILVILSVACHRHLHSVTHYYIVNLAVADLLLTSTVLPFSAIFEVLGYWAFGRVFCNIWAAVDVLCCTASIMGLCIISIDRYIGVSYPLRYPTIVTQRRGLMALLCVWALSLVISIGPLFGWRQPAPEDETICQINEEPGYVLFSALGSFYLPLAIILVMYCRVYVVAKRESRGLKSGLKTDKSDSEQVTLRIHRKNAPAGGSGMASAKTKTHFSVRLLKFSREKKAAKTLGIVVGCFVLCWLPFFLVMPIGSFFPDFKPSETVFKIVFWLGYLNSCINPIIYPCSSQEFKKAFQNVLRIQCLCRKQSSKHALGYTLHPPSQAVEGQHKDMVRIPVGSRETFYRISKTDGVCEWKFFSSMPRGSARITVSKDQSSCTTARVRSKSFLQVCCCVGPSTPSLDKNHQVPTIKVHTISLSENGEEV

[7] = target: T4, Alpha-2A adrenergic receptor (Homo sapiens, UniProt P08913); assay: Binding affinity against Alpha-2A adrenergic receptor
T4 sequence (P08913 whole entry): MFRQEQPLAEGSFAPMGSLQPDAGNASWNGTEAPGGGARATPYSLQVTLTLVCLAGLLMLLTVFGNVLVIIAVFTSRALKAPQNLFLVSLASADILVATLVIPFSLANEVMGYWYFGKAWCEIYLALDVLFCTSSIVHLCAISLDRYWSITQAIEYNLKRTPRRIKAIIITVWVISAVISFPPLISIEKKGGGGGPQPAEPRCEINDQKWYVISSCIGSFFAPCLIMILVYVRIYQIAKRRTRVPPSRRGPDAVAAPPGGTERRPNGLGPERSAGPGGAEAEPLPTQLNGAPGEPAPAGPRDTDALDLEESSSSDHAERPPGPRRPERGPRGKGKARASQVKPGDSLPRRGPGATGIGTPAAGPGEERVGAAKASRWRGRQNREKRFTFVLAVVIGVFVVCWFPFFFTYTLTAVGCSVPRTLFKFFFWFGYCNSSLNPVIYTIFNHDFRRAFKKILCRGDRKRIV

[8] = target: D(2) dopamine receptor (Homo sapiens, UniProt P14416); assay: Binding affinity against Dopamine receptor D2L
[9] = target: D(3) dopamine receptor (Homo sapiens, UniProt P35462); assay: Binding affinity against Dopamine receptor D3
[10] = target: T5, 5-hydroxytryptamine receptor 1A (Homo sapiens, UniProt P08908); assay: Binding affinity against 5-HT1A receptor
T5 sequence (P08908 whole entry): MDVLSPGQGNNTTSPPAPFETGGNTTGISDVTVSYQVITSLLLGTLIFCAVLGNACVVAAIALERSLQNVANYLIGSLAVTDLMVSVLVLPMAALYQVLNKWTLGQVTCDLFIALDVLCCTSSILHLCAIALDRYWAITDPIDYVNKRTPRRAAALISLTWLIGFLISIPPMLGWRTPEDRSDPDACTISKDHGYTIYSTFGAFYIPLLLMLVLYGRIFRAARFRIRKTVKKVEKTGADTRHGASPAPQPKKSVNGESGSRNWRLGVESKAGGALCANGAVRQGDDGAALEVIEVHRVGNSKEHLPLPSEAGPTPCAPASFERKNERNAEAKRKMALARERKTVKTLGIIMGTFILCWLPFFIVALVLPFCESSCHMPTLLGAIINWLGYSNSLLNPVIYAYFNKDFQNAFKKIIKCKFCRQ

[11] = target: T6, 5-hydroxytryptamine receptor 1D (Homo sapiens, UniProt P28221); assay: Binding affinity against 5-HT1D receptor
Target sequence in this assay (P28221 whole entry): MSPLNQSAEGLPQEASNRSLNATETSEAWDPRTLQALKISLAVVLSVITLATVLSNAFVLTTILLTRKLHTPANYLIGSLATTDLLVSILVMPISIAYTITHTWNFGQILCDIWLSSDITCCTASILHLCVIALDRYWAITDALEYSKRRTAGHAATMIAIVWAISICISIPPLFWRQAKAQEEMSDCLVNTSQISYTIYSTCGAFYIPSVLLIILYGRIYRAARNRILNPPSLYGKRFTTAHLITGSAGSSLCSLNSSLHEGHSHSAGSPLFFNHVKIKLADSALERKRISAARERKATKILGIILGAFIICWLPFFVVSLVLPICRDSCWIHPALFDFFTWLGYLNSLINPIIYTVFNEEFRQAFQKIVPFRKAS

[12] = target: T7, 5-hydroxytryptamine receptor 2A (Homo sapiens, UniProt P28223); assay: Binding affinity against 5-HT2A receptor
[13] = target: T6, 5-hydroxytryptamine receptor 1D; assay: Binding affinity against 5-hydroxytryptamine 1D receptor
Target sequence in this assay (P28221 whole entry, looked up): as the sequence (P28221 whole entry) above

[14] = target: T7, 5-hydroxytryptamine receptor 2A; assay: Binding affinity against 5-hydroxytryptamine 2A receptor

Chain of Histamine H1 receptor (P35367 whole entry): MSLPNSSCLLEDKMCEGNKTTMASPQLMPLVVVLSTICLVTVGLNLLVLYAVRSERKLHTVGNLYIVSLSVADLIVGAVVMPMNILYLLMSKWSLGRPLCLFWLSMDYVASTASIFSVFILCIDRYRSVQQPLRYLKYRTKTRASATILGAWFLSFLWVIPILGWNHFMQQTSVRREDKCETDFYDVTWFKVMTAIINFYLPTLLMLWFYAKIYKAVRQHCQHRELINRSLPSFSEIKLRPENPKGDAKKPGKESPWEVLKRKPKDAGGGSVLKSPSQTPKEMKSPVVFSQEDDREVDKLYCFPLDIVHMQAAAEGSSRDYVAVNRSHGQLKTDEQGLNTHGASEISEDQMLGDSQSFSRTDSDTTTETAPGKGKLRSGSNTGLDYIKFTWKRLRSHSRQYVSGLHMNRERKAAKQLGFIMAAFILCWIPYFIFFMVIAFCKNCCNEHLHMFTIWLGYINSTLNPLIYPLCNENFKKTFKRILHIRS
Chain of D(3) dopamine receptor (P35462 whole entry): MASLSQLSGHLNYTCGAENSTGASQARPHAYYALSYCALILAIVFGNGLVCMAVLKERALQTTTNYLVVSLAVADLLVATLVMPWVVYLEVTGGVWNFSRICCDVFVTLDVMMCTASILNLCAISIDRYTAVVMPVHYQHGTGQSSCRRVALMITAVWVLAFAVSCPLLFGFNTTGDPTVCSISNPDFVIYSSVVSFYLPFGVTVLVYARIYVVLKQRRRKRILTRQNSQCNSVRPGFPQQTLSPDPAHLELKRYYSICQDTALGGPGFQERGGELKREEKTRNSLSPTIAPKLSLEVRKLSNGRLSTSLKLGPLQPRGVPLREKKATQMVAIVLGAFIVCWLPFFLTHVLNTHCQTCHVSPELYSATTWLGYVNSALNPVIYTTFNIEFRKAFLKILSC
T7 sequence (P28223 whole entry): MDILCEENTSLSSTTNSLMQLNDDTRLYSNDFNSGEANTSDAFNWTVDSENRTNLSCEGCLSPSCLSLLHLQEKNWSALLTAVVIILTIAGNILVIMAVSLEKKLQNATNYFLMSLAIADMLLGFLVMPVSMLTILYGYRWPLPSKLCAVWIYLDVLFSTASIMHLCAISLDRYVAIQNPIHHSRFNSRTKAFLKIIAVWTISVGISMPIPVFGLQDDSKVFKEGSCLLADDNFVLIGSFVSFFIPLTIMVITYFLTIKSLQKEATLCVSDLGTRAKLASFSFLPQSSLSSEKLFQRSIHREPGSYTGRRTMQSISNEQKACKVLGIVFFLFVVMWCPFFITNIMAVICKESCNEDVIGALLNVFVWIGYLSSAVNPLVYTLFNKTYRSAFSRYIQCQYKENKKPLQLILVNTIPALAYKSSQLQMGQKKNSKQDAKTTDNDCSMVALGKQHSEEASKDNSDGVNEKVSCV
Chain of D(2) dopamine receptor (P14416 whole entry): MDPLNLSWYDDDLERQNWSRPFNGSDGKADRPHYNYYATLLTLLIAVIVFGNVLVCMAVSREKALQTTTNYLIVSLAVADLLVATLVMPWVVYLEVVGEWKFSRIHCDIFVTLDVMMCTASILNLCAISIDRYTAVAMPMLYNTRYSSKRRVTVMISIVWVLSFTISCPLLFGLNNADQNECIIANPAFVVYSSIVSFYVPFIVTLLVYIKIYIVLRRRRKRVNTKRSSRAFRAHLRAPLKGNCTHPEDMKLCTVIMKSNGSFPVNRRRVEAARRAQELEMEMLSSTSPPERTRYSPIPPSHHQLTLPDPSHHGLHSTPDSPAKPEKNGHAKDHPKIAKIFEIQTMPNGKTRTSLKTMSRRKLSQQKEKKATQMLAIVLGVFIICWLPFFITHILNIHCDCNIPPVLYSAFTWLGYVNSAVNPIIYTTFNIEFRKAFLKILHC

IC50 [1] [nM]	IC50 [2] [nM]	IC50 [4] [nM]	IC50 [6] [nM]	IC50 [14] [nM]	SMILES	ED50 [3] [mg/kg]	ED50 [5] [mg/kg]	IC50 [7] [nM]	IC50 [8] [nM]	IC50 [9] [nM]	IC50 [10] [nM]	IC50 [11] [nM]	IC50 [12] [nM]	IC50 [13] [nM]
1.05	2.63	2.34	14.5	–	CN(C)CC1CC2c3ccccc3Cc3ccc(Cl)cc3N2O1 (stereo not given)	0.16	> 2.5	–	–	–	–	–	–	–
–	–	–	–	–	CN(C)CC1CC2c3ccccc3Cc3ccccc3N2O1 (stereo not given)	0.01	> 2.5	–	–	–	–	–	–	–
12.6	251	> 1000	398	389	CN(C)CC1CC2c3ccccc3Cc3ccncc3N2O1 (stereo not given)	0.16	2.5	> 1000	1910	1660	–	–	–	–

SMILES	IC50 [1] [nM]	IC50 [2] [nM]	IC50 [4] [nM]	IC50 [6] [nM]	IC50 [14] [nM]	ED50 [3] [mg/kg]	ED50 [5] [mg/kg]	IC50 [7] [nM]	IC50 [8] [nM]	IC50 [9] [nM]	IC50 [10] [nM]	IC50 [11] [nM]	IC50 [12] [nM]	IC50 [13] [nM]
CN(C)CC1CC2c3cccnc3Cc3ccccc3N2O1 (stereo not given)	–	> 1000	16.6	> 1000	–	< 2.5	< 2.5	> 1000	> 1000	> 1000	> 1000	> 1000	> 1000	912
